This is an account of results in ChEMBL document CHEMBL2169792, “Synthesis of new 4-thiazolidinone-, pyrazoline-, and isatin-based conjugates with promising antitumor activity” (J Med Chem, 2012).

The source made the active and inactive calls. The calls are words filed in the database; no cut-off is given here.

A short description of data set [1]: Cytotoxicity against human leukemia cells after 48 hrs by SRB assay. It counts as functional. The settings on record: Leukemia cell; for CC50: read-out: LC50 (the source's name). On the technique in general: The SRB assay estimates cell density from bound dye.
A further data set deals with OVCAR-3. Briefly: Cytotoxicity against human OVCAR3 cells assessed as cell growth at 10 uM after 48 hrs by SRB assay. The class given is functional. The settings on record: OVCAR-3, 48 h, read-out: Activity.
Data set [2] is described as follows: Cytotoxicity against human melanoma cells after 48 hrs by SRB assay. The class given is functional. The settings on record: Melanoma cell; for CC50: read-out: LC50 (the source's name).
The nature of data set [3]: Cytotoxicity against human non-small cell lung cancer cells after 48 hrs by SRB assay. It counts as functional. The settings on record: Cancer cell lines; for CC50: read-out: LC50 (the source's name).
A short description of data set [4]: Cytotoxicity against human CNS cancer cells after 48 hrs by SRB assay. It counts as functional. The settings on record: Cancer cell lines.
The nature of data set [5]: Cytotoxicity against human colon cancer cells after 48 hrs by SRB assay. The class given is functional. The settings on record: Cancer cell lines.
The nature of data set [6]: Cytotoxicity against human breast cancer cells after 48 hrs by SRB assay. It counts as functional. The following applies: Cancer cell lines.
Data set [7] is described as follows: Cytotoxicity against human prostate cancer cells after 48 hrs by SRB assay. The following applies: Cancer cell lines. The class given is functional.
The nature of data set [8]: Cytotoxicity against human renal cancer cells after 48 hrs by SRB assay. It counts as functional. The settings on record: Cancer cell lines.
Data set [9] can be described thus: Cytotoxicity against human ovarian cancer cells after 48 hrs by SRB assay. The settings on record: Cancer cell lines. The class given is functional.
Data set [10] can be described thus: Toxicity in mouse. It counts as organism-based. The settings on record: in vivo.
For the next data set, the system named is Mus musculus. Briefly: Antitumor activity in ip dosed athymic nude mouse hollow fiber model assessed as reduction of viable cell mass. It counts as functional, organism-based.
The subject of a further data set is 786-0. Briefly: Cytotoxicity against human 786-0 cells assessed as cell growth at 10 uM after 48 hrs by SRB assay. The following applies: 786-0, 48 h, read-out: Activity. The class given is functional.
Another data set deals with SF-539. Briefly: Cytotoxicity against human SF539 cells assessed as cell growth at 10 uM after 48 hrs by SRB assay. The class given is functional. The settings on record: SF-539, 48 h, read-out: Activity.
The next data set relates to HCT-116. Briefly: Cytotoxicity against human HCT116 cells assessed as cell growth at 10 uM after 48 hrs by SRB assay. The class given is functional. The settings on record: HCT-116, 48 h, read-out: Activity.
The next data set deals with MOLT-4. Briefly: Cytotoxicity against human MOLT4 cells assessed as cell growth at 10 uM after 48 hrs by SRB assay. It counts as functional. The settings on record: MOLT-4, 48 h, read-out: Activity.
The test system of the next data set is SNB-75. Briefly: Cytotoxicity against human SNB75 cells assessed as cell growth at 10 uM after 48 hrs by SRB assay. It counts as functional. The settings on record: SNB-75, 48 h, read-out: Activity.
For the next data set, the system named is TK-10. Briefly: Cytotoxicity against human TK10 cells assessed as cell growth at 10 uM after 48 hrs by SRB assay. The class given is functional. The settings on record: TK-10, 48 h, read-out: Activity.
The test system of a further data set is HL-60(TB). Briefly: Cytotoxicity against human HL-60(TB) cells assessed as cell growth at 10 uM after 48 hrs by SRB assay. It counts as functional. The settings on record: HL-60, 48 h, read-out: Activity.

On to `COc1ccc(C2CC(c3ccccc3)=NN2C2=NC(=O)/C(=C3\C(=O)Nc4ccccc43)S2)cc1` (stereo not drawn), for which the 50% growth inhibitory concentration (GI50) was found to be 1.64 µM in [1]; 2 µM in data set [2]; 2.38 µM in [3]; 1.62 µM in data set [4]; 1.81 µM in data set [5]; 2.02 µM in [6]. Also, the concentration for 50% growth inhibition (GI50) in data set [7] was 1.52 µM; in data set [8], 2.01 µM; in data set [9] it was 2.3 µM. Further, the TGI worked out at 20.8 µM in [1]; 4.51 µM in data set [2]; 6.04 µM in [3]; 3.45 µM in data set [4]; 4.39 µM in [5]; 4.58 µM in data set [6]. In addition, the total growth inhibition concentration (TGI) stood at 3.35 µM in [7], 4.27 µM in data set [8] and 19 µM in [9]. The figures for the CC50 in data set [1], in data set [2] and in [3] were 93 µM, 38 µM and 70.8 µM, respectively. Further, in the data set with OVCAR-3, the growth at 10 µM was -51.4%. Besides, the LC50 (concentration giving 50% net cell kill) in data set [4] was 7.39 µM. For the same compound, the LC50 (concentration lethal to 50% of cells) in [5] is 32 µM. For the same compound, the LC50 (concentration causing 50% net cell kill) in data set [6] is 39 µM; in [9], 71.1 µM. In addition, the 50% lethal concentration (LC50) was 7.37 µM in data set [7] and 34.3 µM in [8].
In the case of `COc1ccc(C2=NN(C3=NC(=O)/C(=C4\C(=O)Nc5ccccc54)S3)C(c3ccc(Cl)cc3)C2)cc1` (stereo not drawn), the 50% growth inhibitory concentration (GI50) in [1] worked out at 86.5 µM; in data set [2], 100 µM; in [3], 92.4 µM; in data set [4], 77.5 µM; in [5], 100 µM; in [6] it was 100 µM. The GI50 in data set [7], in data set [8] and in data set [9] was 100 µM in each case. Also, the concentration for total growth inhibition (TGI) in data set [1] is 90.9 µM; in [2], 100 µM; in data set [3], 100 µM; in [4] it was 100 µM; in data set [5], 100 µM; in [6] it was 100 µM. Besides, the TGI in data set [7], in data set [8] and in [9] was 100 µM throughout. For the same compound, the CC50 in data set [1], in data set [2] and in data set [3] was 100 µM throughout. The growth at 10 µM in the data set on OVCAR-3 is 77.5%. Further, the MTD in data set [10] was above 400 mg/kg. The LC50 (concentration giving 50% net cell kill) in data set [4] was determined as 100 µM. For the same compound, the LC50 (concentration lethal to 50% of cells) in data set [5] is 100 µM. Also, the result with Mus musculus was inactive. In addition, the LC50 (concentration causing 50% net cell kill) in data set [6] and in [9] was 100 µM in each case. For the same compound, the median lethal concentration (LC50) in data set [7] and in data set [8] was 100 µM each time.
Turning to `O=C1Nc2ccc(Br)cc2C1n1nc(-c2ccccc2)cc1-c1ccc(Cl)cc1` (stereo not drawn), the growth at 10 µM in the data set with 786-0 worked out at 90.1%.
On to `COc1ccc(C2CC(c3ccccc3)=NN2C2=NC(=O)/C(=C3\C(=O)Nc4ccc(Br)cc43)S2)cc1` (stereo not drawn), for which the GI50 in data set [1] worked out at 0.25 µM; in data set [2], 0.21 µM; in data set [3], 0.2 µM; in data set [4], 0.18 µM; in data set [5], 0.19 µM; in [6] it was 0.2 µM. Also, the 50% growth inhibitory concentration (GI50) in data set [7] is 0.24 µM; in data set [8], 0.18 µM; in data set [9], 0.23 µM. Also, the TGI came to 4.23 µM in data set [1]; 0.55 µM in data set [2]; 0.51 µM in data set [3]; 0.39 µM in [4]; 0.39 µM in data set [5]; 0.48 µM in [6]. In addition, the TGI in data set [7] was found to be 0.66 µM; in data set [8], 0.36 µM; in data set [9] it was 3.63 µM. Besides, the CC50 in [1] turned out to be 51 µM; in [2], 5.01 µM; in data set [3], 3.27 µM. The same compound gave an MTD in data set [10] above 400 mg/kg. For the same compound, the growth at 10 µM with SF-539 was -55.1%. The same compound had an LC50 (concentration giving 50% net cell kill) in data set [4] of 6.48 µM. The compound further displayed an LC50 (concentration lethal to 50% of cells) in [5] of 1.07 µM. In the data set with Mus musculus, the result was inactive. For the same compound, the LC50 (concentration causing 50% net cell kill) is 26.5 µM in data set [6] and 23.4 µM in [9]. Besides, the LC50 in [7] was 39.5 µM; in data set [8], 1.27 µM.
Take `O=C1N=C(N2N=C(c3ccccc3)CC2c2ccccc2O)S/C1=C1/C(=O)Nc2ccccc21` (stereo not drawn): the GI50 amounted to 3.19 µM in [1]; 2.04 µM in data set [2]; 2.03 µM in data set [3]; 2.13 µM in [4]; 1.99 µM in data set [5]; 2.09 µM in [6]. Also, the values for the GI50 in [7], in [8] and in data set [9] were 2.05 µM, 2.07 µM and 2.41 µM, respectively. In addition, the concentration for total growth inhibition (TGI) in data set [1] amounted to 48.8 µM; in data set [2], 4.4 µM; in [3] it was 4.73 µM; in data set [4], 5.37 µM; in data set [5], 4.22 µM; in [6], 4.77 µM. Besides, the TGI in [7] stood at 4.35 µM; in data set [8], 17.8 µM; in [9], 36.6 µM. Also, the CC50 in data set [1] came out at 100 µM; in data set [2], 60.8 µM; in data set [3], 57.2 µM. This compound also displayed an LC50 (concentration giving 50% net cell kill) in data set [4] of 68.1 µM. Moreover, the LC50 (concentration lethal to 50% of cells) in [5] is 33.4 µM. Further, the growth at 10 µM in the data set with HCT-116 is -37.4%. Moreover, the LC50 (concentration causing 50% net cell kill) amounted to 64.6 µM in [6] and 81.5 µM in data set [9]. Moreover, the LC50 is 54.7 µM in [7] and 55.8 µM in data set [8].
With `COc1ccc(-c2cc(-c3ccc4ccccc4c3)nn2C2C(=O)Nc3ccc(Cl)cc32)cc1` (stereo not drawn), the growth at 10 µM in the data set with MOLT-4 was found to be 98.2%.
For `O=C(O)CN1C(=O)C(n2nc(-c3ccccc3)cc2-c2ccccc2O)c2ccccc21` (stereo not drawn), the growth at 10 µM in the data set with SNB-75 stood at 108%.
As to `COc1ccc(C2CC(c3ccccc3)=NN2C2=NC(=O)/C(=C3\C(=O)N(CC(=O)O)c4ccccc43)S2)cc1` (stereo not drawn), the growth at 10 µM in the data set with TK-10 was determined as 97.3%.
With `CN(C)c1ccc(-c2cc(-c3ccccc3)nn2C2C(=O)Nc3ccccc32)cc1` (stereo not drawn), the 50% growth inhibitory concentration (GI50) in [1] came to 16.3 µM; in data set [2], 19.6 µM; in data set [3], 16.2 µM; in data set [4], 21.2 µM; in [5], 16.1 µM; in [6], 20.8 µM. Also, the concentration for 50% growth inhibition (GI50) was 16.1 µM in data set [7], 17.4 µM in data set [8] and 18.9 µM in data set [9]. Moreover, the TGI in data set [1] was determined as 74.6 µM; in [2] it was 54.5 µM; in [3], 56 µM; in data set [4] it was 68.7 µM; in data set [5] it was 39.7 µM; in data set [6], 73.4 µM. For the same compound, the TGI was 74 µM in data set [7], 57.3 µM in [8] and 67.2 µM in data set [9]. Also, the figures for the CC50 in data set [1], in data set [2] and in data set [3] were 100 µM, 91.2 µM and 90.9 µM, respectively. Besides, the LC50 (concentration giving 50% net cell kill) in [4] is 95.1 µM. Moreover, the LC50 (concentration lethal to 50% of cells) in data set [5] was 79 µM. Besides, the growth at 10 µM with HL-60(TB) turned out to be 70.9%. The LC50 (concentration causing 50% net cell kill) in data set [6] was 90.1 µM; in data set [9], 93.3 µM. Further, the values for the LC50 in [7] and in data set [8] were 100 µM and 86.2 µM, respectively.

For orientation: GI50 means the concentration that inhibits growth by half. Low values mean more potent growth inhibition, high ones less potent growth inhibition. What is called TGI is the concentration giving total growth inhibition. A low value points to more potent growth arrest. What is called LC50 is the concentration lethal to half of the exposed cells or organisms. Lower therefore signals a more lethal substance.
